# Experimental data: patent publication US20230330196A1, “IMMUNOSUPPRESSIVE AGENTS” (The Trustees of Columbia University in the City of New York, priority 2020, published 2023)
# System: allo-reactive T cells
# Experiment: Mixed lymphocyte reaction, B6 SPCs cocultured with irradiated BALB/c SPCs with WT or E223A mutant MMP13
# Type: cell-based, mouse
# Settings: 5 days coculture
# Experimental: Flow cytometric analysis: Single-cell suspensions were filtered through nylon mesh and stained with the following antibodies: CD3, CD4, CD8, CD25, IFN-g, PD-L1, CD11c, B220, CD11b, F4/80, and then analyzed by FCM using Fortessa.
# SPCs from B6 mice were seeded at 5×10e5/well, cocultured with irradiated BALB/c SPCs (5×10e5/well) in the presence of recombinant human MMP13 (WT-MMP13) or mutant MMP13 (E223A, muMMP13) proteins for 5 days.
substance,measurement,setting,value
mu-MMP13: catalytically-inactive E223A point mutant of MMP-13,CFSElo CD25+ of CD4+ T cells,decreased from 21.1% without MMP13,3.2%
same,CFSElo CD25+ of CD8+ T cells,down from 41.5% without MMP13,2.5%
